Literature values, collected in US20050263150A1, “Systems and methods for the administration of drugs and medications” (priority 2004, published 2005).
Like-named read-outs stand apart in the source and are kept apart here.

Key:
[1] = ketamine combined with benzodiazepines and barbiturates, extends ketamine's half-life
[2] = for duration of action: in vivo

## CNC1(c2ccccc2Cl)CCCCC1=O (stereo not drawn) [Ketamine, 2-(2-chlorophenyl)-2-(methylamino)-cyclohexanone]
[1]
  prolonging clinical recovery time: about 30%

## C=CCC1(C(C)C#CCC)C(=O)N=C(O)N(C)C1=O (stereo not drawn) [Methohexital]
[2]
  duration of action: less than 10 minutes
[2]; procedural sedation
  onset of action: less than 1 minute

## [N-]=[N+]=O [Nitrous oxide]
[2]
  duration of action: 3 to 5 min
[2]; sedative/analgesic
  onset of action: 3 to 5 min

## CC(C)c1cccc(C(C)C)c1O [Propofol]
other
  solubility in water: almost completely insoluble in water
